Earlier results in patent US12036203B2, “Methods of treating or reducing the risk of cardiovascular events and related diseases using SGLT-2 inhibitors” (Merck Sharp & Dohme LLC, priority 2016, dated 2024).

Details: type 2 diabetes at high cardiovascular risk

OC[C@H]1O[C@@H](c2ccc(Cl)c(Cc3ccc(O[C@H]4CCOC4)cc3)c2)[C@H](O)[C@@H](O)[C@@H]1O [empagliflozin]
rate of hospitalization for heart failure (in addition to standard of care, placebo group 4.1%): 2.7% | rate of death from cardiovascular causes (in addition to standard of care, placebo group 5.9%): 3.7% | rate of death from any cause (in addition to standard of care, placebo group 8.3%): 5.7% | rates of myocardial infarction or stroke (vs. placebo): no significant between-group differences | relative risk reduction, death from any cause (vs. placebo): 32% | relative risk reduction, death from cardiovascular causes (vs. placebo): 38% | relative risk reduction, hospitalization for heart failure (vs. placebo): 35%
